Assay results: patent US4379156A, “Heterocyclic chemicals, their preparation and use” (Burroughs Wellcome Co., priority 1979, dated 1983)
Where “and” joins values, the source holds several entries; their conditions need not be identical. Equal entries are not always repeated. Where two headings read alike, the source gives them in different places.

Columns and labels:
[1] = test system: Schistosoma mansoni; assay: Schistosomicidal activity in infected mice (proportion of dead worms); format: in vivo; settings: 12.5 mg/kg, dead worms relative to total worms recovered, autopsy 7 to 10 days after treatment; for % kill P.O.: oral; for % kill S.C.: subcutaneous
Procedure: Male mice weighing between 18 and 20 g were each infected percutaneously with 80 to 100 cercariae of Schistosoma mansoni. Groups of 5 or 10 mice with a 7 to 9 week infection of schistosomes were dosed orally (P.O.) or subcutaneously (S.C.) with 12.5 mg/kg of the compounds to be tested, and the animals were autopsied from 7 to 10 days after treatment. The number, sex and proportional distribution of schistosomes within the mesenteric, portal and intrahepatic veins were determined, and the final assessment of dose response was made on the proportion of dead worms found in relation to the total worms recovered in the treated group.

[2] = Toxicity in adult male mice (LD50); settings: mouse, in vivo, iv, I.V.
[3] = Toxicity in adult male mice (LD50); settings: mouse, in vivo, observed up to 10 days
Procedure: Groups of adult male mice were given graded doses of the compound to be tested by stomach tube (P.O.) or subcutaneously (S.C.). The animals were kept under observation at frequent intervals up to 6 hours, then at 24 hours and daily for up to 10 days for overt changes in behaviour and for fatalities.

[4] = po, by stomach tube, read-out: LD50 P.O.
[5] = sc, subcutaneous, read-out: LD50 S.C.

## 2-[2-(2-Chlorobenzoylimino)-5-nitro-4-thiazolin-3-yl]diacetamide [Example 3]
[1]
  % kill P.O.: 100% and 71%
  % kill S.C.: 99% and 98%

## CC(=O)NC(=O)Cn1cc([N+](=O)[O-])sc1=NC(=O)c1ccccc1 [*(1), 2-[2-(benzoylimino)-5-nitro-4-thiazolin-3yl]diacetamide, reference compound]
[1]
  % kill P.O.: 58%
  % kill S.C.: 53%
[2]
  LD50: 192 mg/kg
[3]; [4]
  LD50 at 240 h: 953 mg/kg

## NC(=O)Cn1cc([N+](=O)[O-])sc1=NC(=O)c1ccccc1 [*(2), 2-(benzoylimino)-5-nitro-4-thiazoline-3-acetamide, reference compound]
[1]
  % kill P.O.: 8.5%
  % kill S.C.: 0%

## CC(=O)NC(=O)Cn1cc([N+](=O)[O-])sc1=NC(=O)c1ccccc1C [Example 1, 2-[2-(2-Methylbenzoylimino)-5-nitro-4-thiazolin-3-yl]diacetamide]
[1]
  % kill P.O.: 80%
  % kill S.C.: 100%
[3]; [4]
  LD50 at 240 h: > 2000 mg/kg
[3]; [5]
  LD50 at 240 h: > 2000 mg/kg

## CC(=O)NC(=O)Cn1cc([N+](=O)[O-])sc1=NC(=O)c1cccc([N+](=O)[O-])c1 [Example 2, 2-[2-(3-Nitrobenzoylimino)-5-nitro-4-thiazolin-3-yl]diacetamide]
[1]
  % kill P.O.: 100%
  % kill S.C.: 100%
[3]; [4]
  LD50 at 240 h: > 2000 mg/kg
[3]; [5]
  LD50 at 240 h: > 2000 mg/kg

## CC(=O)NC(=O)Cn1cc([N+](=O)[O-])sc1=NC(=O)c1ccccc1[N+](=O)[O-] [Example 4, 2-[2-(2-Nitrobenzoylimino)-5-nitro-4-thiazolin-3-yl]diacetamide]
[1]
  % kill P.O.: 74%
  % kill S.C.: 98%

## Cc1ccccc1C(=O)N=c1sc([N+](=O)[O-])cn1CC(N)=O [Example 5, 2-[(2-Methylbenzoyl)imino]-5-nitro-4-thiazoline-3-acetamide]
[3]; [4]
  LD50 at 240 h: > 2000 mg/kg
[3]; [5]
  LD50 at 240 h: > 1000 mg/kg

## NC(=O)Cn1cc([N+](=O)[O-])sc1=NC(=O)c1cccc([N+](=O)[O-])c1 [Example 6, 2-[(3-Nitrobenzoyl)imino]-5-nitro-4-thiazoline-3-acetamide]
[3]; [4]
  LD50 at 240 h: > 1000 mg/kg
[3]; [5]
  LD50 at 240 h: > 500 mg/kg
